# Where two headings read alike, the source gives them in different places.
# What was measured:
# [1] = Clearance (CL) / pharmacokinetics; format: in vivo, mice; conditions: for clearance: mouse, plasma, iv
# Procedure: (§1) Exemplary compounds of the presently-disclosed subject matter were assessed for activity, including clearance, potency, and selectivity. Results from studies are compiled in Tables 2-4.
# (§2) Desirable clearance was identified at lower values of mL hr^−1kg^−1 (e.g., about ≤10 mL hr^−1 kg^−1), desirable potency was identified at lower values of IC50 (e.g., about ≤10 nM in TC32 cells), and desired selectivity was identified at higher ratios of IC50 in PC3/IC50 in TC32 (e.g. about >10).
# Pharmacokinetics of exemplary compounds of the presently-disclosed subject matter were studied in mice following bolus IV dosing. Groups of three mice were administered the compound(s) and blood samples were collected via saphenous bleed. Plasma was separated by centrifugation and extracted to quantitate analytes by LC/MS/MS. Sample analysis followed upon the system meeting system suitability criteria customary for fit for purpose analytical methods. FIG. 1A includes data comparing YL-C09 to mithramycin (MTM) dosed separately. FIG. 1B includes data for YL-B171, YL-C110 and MTM dosed in cassette format.
# log P = format: physicochemical
# TC32 cells = experiment: Potency IC50 in TC32 cells and selectivity; format: cell-based; conditions: Homo sapiens
# Procedure: as §1, §2
# PC3 [2] = experiment: IC50 in PC3 cells; format: cell-based; conditions: head prints PC2, text PC3
# Procedure: as §1, §2
# PC3 [3] = experiment: Cytotoxicity, resazurin fluorescence, PC3; format: cell-based; conditions: for GI50: Homo sapiens, PC-3, 72 h, read-out: GI50 PC3, Table 5; for GI50 PC3: Table 5, 72 hr
# Procedure: (§3) Exemplary compounds of the presently-disclosed subject matter were assessed for cytotoxicity (Table 5) in Ewing sarcoma (TC32) and non-Ewing (PC3 prostate cancer). […] Cells (1000-5000/well) were seeded in 96-well plates and allowed to attach and grow for 24 hr prior to adding compounds in half-log increments from 0.3 nM-10 μM. Cell viability was assessed after 72 hr continuous incubation with compounds using resazurin fluorescence. GI50 values were estimated using GraphPad Prism.
# TC32 = experiment: Cytotoxicity, resazurin fluorescence, TC32; format: cell-based; conditions: Homo sapiens, TC-32, 72 h, read-out: GI50 TC32, Table 5
# Procedure: as §3
# [4] = TC-32, Table 2, read-out: IC50 TC32
# [5] = TC-32, Table 4, read-out: IC50 TC32
# [6] = Homo sapiens, PC-3, read-out: IC50 PC2, Table 2
# [7] = Homo sapiens, PC-3, read-out: IC50 PC2, Table 4
# [8] = TC-32, Table 3, read-out: IC50 TC32
# [9] = Homo sapiens, PC-3, read-out: IC50 PC2, Table 3
Structure (SMILES),CL ([1]; Table 4) [mL/min/kg],PK Improvement ([1]; Table 4),clearance ([1]; Table 2) [mL/min/kg],logP (log P; Table 2),logP (log P; Table 4),IC50 (TC32 cells; [4]) [nM],IC50 (TC32 cells; [5]) [nM],IC50 (PC3 [2]; [6]) [nM],IC50 (PC3 [2]; [7]) [nM],CL ([1]; Table 3) [mL/min/kg],GI50 (PC3 [3]) [nM],GI50 (TC32) [nM],GI50 PC3 (PC3 [3]) [nM],further results
CO[C@H](C(=NOCCNC(=O)c1cc2cc(Cl)ccc2[nH]1)[C@@H](O)[C@@H](C)O)[C@@H]1Cc2cc3cc(O[C@H]4C[C@@H](O[C@H]5C[C@@H](O)[C@H](O)[C@@H](C)O5)[C@H](O)[C@@H](C)O4)c(C)c(O)c3c(O)c2C(=O)[C@H]1O[C@H]1C[C@@H](O[C@H]2C[C@@H](O[C@H]3C[C@](C)(O)[C@H](O)[C@@H](C)O3)[C@@H](O)[C@@H](C)O2)[C@H](O)[C@@H](C)O1 [YL-B152],0.733,35.9,0.733,2.19,2.2,8.34,8.3,17.6,17.6,,,,,
COC(C(=NOCCNC(=O)c1[nH]c2ccc(Cl)cc2c1-c1ccccc1)C(O)C(C)O)C1Cc2cc3cc(OC4CC(OC5CC(O)C(O)C(C)O5)C(O)C(C)O4)c(C)c(O)c3c(O)c2C(=O)C1OC1CC(OC2CC(OC3CC(C)(O)C(O)C(C)O3)C(O)C(C)O2)C(O)C(C)O1 (stereo not drawn) [YL-B176],0.35,75.1,0.35,3.49,3.5,13.9,13.9,178,178,0.35,304,117,,logP (log P; Table 3): 3.49; IC50 (TC32 cells; [8]): 13.9 nM; IC50 (PC3 [2]; [9]): 178 nM
COC(C(=NOCc1[nH]c2ccc(Cl)cc2c1-c1ccccc1)C(O)C(C)O)C1Cc2cc3cc(OC4CC(OC5CC(O)C(O)C(C)O5)C(O)C(C)O4)c(C)c(O)c3c(O)c2C(=O)C1OC1CC(OC2CC(OC3CC(C)(O)C(O)C(C)O3)C(O)C(C)O2)C(O)C(C)O1 (stereo not drawn) [YL-C51],,,0.25,4.19,,456,,2790,,,,> 1000,> 1000,
COC(C(=NOCCNC(=O)c1[nH]c2ccc(C(F)(F)F)cc2c1-c1ccccc1)C(O)C(C)O)C1Cc2cc3cc(OC4CC(OC5CC(O)C(O)C(C)O5)C(O)C(C)O4)c(C)c(O)c3c(O)c2C(=O)C1OC1CC(OC2CC(OC3CC(C)(O)C(O)C(C)O3)C(O)C(C)O2)C(O)C(C)O1 (stereo not drawn) [YL-C66],0.2,131.5,,,,,,,,0.2,,,,log P (log P; Table 3): 3.84; log P (log P; Table 4): 3.8; IC50 (PC3 [2]; Table 3): 283 nM
CO[C@H](C(=NOCCNC(=O)c1[nH]c2ccc(C(F)(F)F)cc2c1-c1ccc(Cl)cc1)[C@@H](O)[C@@H](C)O)[C@@H]1Cc2cc3cc(O[C@H]4C[C@@H](O[C@H]5C[C@@H](O)[C@H](O)[C@@H](C)O5)[C@H](O)[C@@H](C)O4)c(C)c(O)c3c(O)c2C(=O)[C@H]1O[C@H]1C[C@@H](O[C@H]2C[C@@H](O[C@H]3C[C@](C)(O)[C@H](O)[C@@H](C)O3)[C@@H](O)[C@@H](C)O2)[C@H](O)[C@@H](C)O1 [YL-C67],0.167,157.8,,,,,,,,0.167,,,> 1000,CL ([1]; Table 2): 0.167 mL/min/kg; log P (log P; Table 2): 4.56; log P (log P; Table 3): 4.56; log P (log P; Table 4): 4.6; IC50 (PC3 [2]; Table 3): 1230 nM
CO[C@H](C(=NOCCNC(=O)c1[nH]c2ccc(C(F)(F)F)cc2c1-c1ccc(F)c(Cl)c1)[C@@H](O)[C@@H](C)O)[C@@H]1Cc2cc3cc(O[C@H]4C[C@@H](O[C@H]5C[C@@H](O)[C@H](O)[C@@H](C)O5)[C@H](O)[C@@H](C)O4)c(C)c(O)c3c(O)c2C(=O)[C@H]1O[C@H]1C[C@@H](O[C@H]2C[C@@H](O[C@H]3C[C@](C)(O)[C@H](O)[C@@H](C)O3)[C@@H](O)[C@@H](C)O2)[C@H](O)[C@@H](C)O1 [YL-C68],,,,,,,,,,,,,> 1000,log P (log P; Table 3): 4.54
CO[C@H](C(=NOCCNC(=O)c1[nH]c2ccc(Cl)cc2c1-c1ccc(Cl)cc1)[C@@H](O)[C@@H](C)O)[C@@H]1Cc2cc3cc(O[C@H]4C[C@@H](O[C@H]5C[C@@H](O)[C@H](O)[C@@H](C)O5)[C@H](O)[C@@H](C)O4)c(C)c(O)c3c(O)c2C(=O)[C@H]1O[C@H]1C[C@@H](O[C@H]2C[C@@H](O[C@H]3C[C@](C)(O)[C@H](O)[C@@H](C)O3)[C@@H](O)[C@@H](C)O2)[C@H](O)[C@@H](C)O1 [YL-C82],0.383,68.6,0.383,4.21,4.2,20.2,20.2,515,515,0.383,805,356,,"logP (log P; Table 3): 4.21; IC50 (TC32 cells; TC-32, read-out: IC50 TC32, Table 3): 12 nM; IC50 (PC3 [2]; [9]): 218 nM"
COC(C(=NOCCCNC(=O)c1[nH]c2ccc(Cl)cc2c1-c1ccc(Cl)cc1)C(O)C(C)O)C1Cc2cc3cc(OC4CC(OC5CC(O)C(O)C(C)O5)C(O)C(C)O4)c(C)c(O)c3c(O)c2C(=O)C1OC1CC(OC2CC(OC3CC(C)(O)C(O)C(C)O3)C(O)C(C)O2)C(O)C(C)O1 (stereo not drawn) [YL-C95],,,,,,,,,,,,,> 1000,CL ([1]; Table 2): 0.433 mL/min/kg; log P (log P; Table 2): 4.69
CO[C@H](C(=NOCCNC(=O)c1[nH]c2ccc(Cl)cc2c1-c1cnn(C)c1)[C@@H](O)[C@@H](C)O)[C@@H]1Cc2cc3cc(O[C@H]4C[C@@H](O[C@H]5C[C@@H](O)[C@H](O)[C@@H](C)O5)[C@H](O)[C@@H](C)O4)c(C)c(O)c3c(O)c2C(=O)[C@H]1O[C@H]1C[C@@H](O[C@H]2C[C@@H](O[C@H]3C[C@](C)(O)[C@H](O)[C@@H](C)O3)[C@@H](O)[C@@H](C)O2)[C@H](O)[C@@H](C)O1 [YL-C102],,,,2.26,,7.4,,43,,,334,49,,
COC(C(=NOCCNC(=O)c1[nH]c2ccc(Cl)cc2c1-c1ccnn1C)C(O)C(C)O)C1Cc2cc3cc(OC4CC(OC5CC(O)C(O)C(C)O5)C(O)C(C)O4)c(C)c(O)c3c(O)c2C(=O)C1OC1CC(OC2CC(OC3CC(C)(O)C(O)C(C)O3)C(O)C(C)O2)C(O)C(C)O1 (stereo not drawn) [YL-C104],,,0.517,1.77,,5.63,,23,,,133,34,,
COC(C(=NOCCNC(=O)c1[nH]c2ccc(Cl)cc2c1-c1cccs1)C(O)C(C)O)C1Cc2cc3cc(OC4CC(OC5CC(O)C(O)C(C)O5)C(O)C(C)O4)c(C)c(O)c3c(O)c2C(=O)C1OC1CC(OC2CC(OC3CC(C)(O)C(O)C(C)O3)C(O)C(C)O2)C(O)C(C)O1 (stereo not drawn) [YL-C106],0.317,83.1,0.317,3.3,3.3,17.2,17.2,202,202,0.317,236,99,,logP (log P; Table 3): 3.3; IC50 (TC32 cells; [8]): 17 nM; IC50 (PC3 [2]; [9]): 202 nM
COc1ccc2[nH]c(C(=O)NCCON=C([C@@H](O)[C@@H](C)O)[C@@H](OC)[C@@H]3Cc4cc5cc(O[C@H]6C[C@@H](O[C@H]7C[C@@H](O)[C@H](O)[C@@H](C)O7)[C@H](O)[C@@H](C)O6)c(C)c(O)c5c(O)c4C(=O)[C@H]3O[C@H]3C[C@@H](O[C@H]4C[C@@H](O[C@H]5C[C@](C)(O)[C@H](O)[C@@H](C)O5)[C@@H](O)[C@@H](C)O4)[C@H](O)[C@@H](C)O3)c(-c3ccc(Cl)cc3)c2c1 [YL-C114],,,,,,,,,,,,,,CL ([1]; Table 2): 0.467 mL/min/kg; log P (log P; Table 2): 3.58
